Patent US20250026745A1 (Bluejay Therapeutics, Inc., priority 2023, published 2025)

Target: recombinant 17β-HSD13 protein (Homo sapiens (Human), UniProt Q7Z5P4)
Assay: 17β-HSD13 biochemical assay (NAD+/NADH Glo chemiluminescence)
Settings: 17β-HSD13 50 nM, NAD+ 10 mM, β-estradiol 20 μM, 2 hours room temperature
Method: 17β-HSD13 biochemical assays are generically described in patents WO 2022/020730, WO 2021/003295, and WO 2023/023310. More specifically, recombinant 17β-HSD13 protein was assayed in a buffer containing 200 mM Tris pH 7.5, 0.01% Triton X-100, and 0.02% BSA into a 384-well assay plate. Compounds were incubated with 17β-HSD13 (final 50 nM) and NAD+ (final 10 mM) at room temperature for 1 h prior to substrate addition. The assay reaction was then initiated by addition of β-estradiol (final 20 μM), and the reaction mixture was incubated for 2 hours at room temperature. Product formation was detected with chemiluminescence by adding equal volume of NAD+/NADH Glo reagent (Promega, #G9062) and read on a PHERAstar microplate reader (BMG LABTECH). IC50 values were determined with GraphPad Prism®, where log-transformed concentration values and the inhibition data were fitted to a four-parameter logistic equation. Y=Bottom+(Top−Bottom)/(1+10^((Log IC50−X)*HillSlope)). The original, % control, or % inhibition data are represented by Y along with their minimal (Bottom) and maximal (Top) values. The inhibitor concentration is represented by X, IC50 is the concentration at 50% maximal value, and Hill Slope is the slope factor.

recombinant 17β-HSD13 protein, sequence (Q7Z5P4 20-300): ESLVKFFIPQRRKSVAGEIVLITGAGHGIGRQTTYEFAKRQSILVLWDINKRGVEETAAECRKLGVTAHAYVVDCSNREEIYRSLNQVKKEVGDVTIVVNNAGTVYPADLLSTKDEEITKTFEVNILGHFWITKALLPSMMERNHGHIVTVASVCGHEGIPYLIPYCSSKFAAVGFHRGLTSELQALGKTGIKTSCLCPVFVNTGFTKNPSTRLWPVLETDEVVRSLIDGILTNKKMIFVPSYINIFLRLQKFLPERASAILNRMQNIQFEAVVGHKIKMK

IC50 [nM]	Compound
323	CCN1C(=O)N(Cc2nnc(-c3cnc(Cl)c(O)c3)s2)C2(CC2)C1=O [Compound I-12, 4-((5-(6-chloro-5-hydroxypyridin-3-yl)-1,3,4-thiadiazol-2-yl)methyl)-6-ethyl-4,6-diazaspiro[2.4]heptane-5,7-dione]
934	CC[C@H](C)N1C(=O)N(Cc2nnc(-c3ccc(F)c(O)n3)s2)C2(CC2)C1=O [Compound I-78, (S)-6-(sec-butyl)-4-((5-(5-fluoro-6-hydroxypyridin-2-yl)-1,3,4-thiadiazol-2-yl)methyl)-4,6-diazaspiro[2.4]heptane-5,7-dione]
6.53	O=C1N([C@@H](c2ccc(F)cc2F)C(F)(F)F)C(=O)C2(CC2)N1Cc1nnc(-c2ccc(F)c(O)c2F)s1 [Compound I-90B, (S)-4-((5-(2,4-difluoro-3-hydroxyphenyl)-1,3,4-thiadiazol-2-yl)methyl)-6-(1-(2,4-difluorophenyl)-2,2,2-trifluoroethyl)-4,6-diazaspiro[2.4]heptane-5,7-dione]
193	O=C1N(CC(F)(F)F)C(=O)C2(CC2)N1Cc1nnc(-c2cncc(O)c2Cl)s1 [Compound I-18, 4-((5-(4-chloro-5-hydroxypyridin-3-yl)-1,3,4-thiadiazol-2-yl)methyl)-6-(2,2,2-trifluoroethyl)-4,6-diazaspiro[2.4]heptane-5,7-dione]
1030	O=C(O)CN1C(=O)N(Cc2nnc(-c3ccc(F)c(O)c3Cl)s2)C2(CC2)C1=O [Compound I-45, 2-(4-((5-(2-chloro-4-fluoro-3-hydroxyphenyl)-1,3,4-thiadiazol-2-yl)methyl)-5,7-dioxo-4,6-diazaspiro[2.4]heptan-6-yl)acetic acid]
84.9	O=C1N(CC(F)(F)F)C(=O)C2(CC2)N1Cc1nnc(-c2cc(C3CC3)c(F)c(O)c2F)s1 [Compound I-62, 4-((5-(5-cyclopropyl-2,4-difluoro-3-hydroxyphenyl)-1,3,4-thiadiazol-2-yl)methyl)-6-(2,2,2-trifluoroethyl)-4,6-diazaspiro[2.4]heptane-5,7-dione]
505	O=C1N(Cc2ccccc2)C(=O)C2(CC2)N1Cc1nnc(-c2cc(C(F)(F)F)c(F)c(O)n2)s1 [Compound I-61, 6-benzyl-4-((5-(5-fluoro-6-hydroxy-4-(trifluoromethyl)pyridin-2-yl)-1,3,4-thiadiazol-2-yl)methyl)-4,6-diazaspiro[2.4]heptane-5,7-dione]
122	C[C@H](c1ccccc1)N1C(=O)N(Cc2nnc(-c3ccc(F)c(O)n3)s2)C2(CC2)C1=O [Compound I-79, (R)-4-((5-(5-fluoro-6-hydroxypyridin-2-yl)-1,3,4-thiadiazol-2-yl)methyl)-6-(1-phenylethyl)-4,6-diazaspiro[2.4]heptane-5,7-dione]
4.39	O=C1N(Cc2nnc(-c3ccc(F)c(O)c3Cl)s2)C2(CC2)C(=O)N1C1(c2ccccc2)CC1 [Compound I-103, 4-((5-(2-chloro-4-fluoro-3-hydroxyphenyl)-1,3,4-thiadiazol-2-yl)methyl)-6-(1-phenylcyclopropyl)-4,6-diazaspiro[2.4]heptane-5,7-dione]
8.83	O=C1N(Cc2ccc(F)cc2F)C(=O)C2(CC2)N1Cc1nnc(-c2ccc(F)c(O)c2Cl)s1 [Compound I-33, 4-((5-(2-chloro-4-fluoro-3-hydroxyphenyl)-1,3,4-thiadiazol-2-yl)methyl)-6-(2,4-difluorobenzyl)-4,6-diazaspiro[2.4]heptane-5,7-dione]
176	O=C1N(Cc2nnc(-c3ccc(F)c(O)n3)s2)C2(CC2)C(=O)N1C1(c2ccccc2)CC1 [Compound I-104, 4-((5-(5-fluoro-6-hydroxypyridin-2-yl)-1,3,4-thiadiazol-2-yl)methyl)-6-(1-phenylcyclopropyl)-4,6-diazaspiro[2.4]heptane-5,7-dione]
1060	CC[C@@H](C)N1C(=O)N(Cc2nnc(-c3ccc(F)c(O)n3)s2)C2(CC2)C1=O [Compound I-77, (R)-6-(sec-butyl)-4-((5-(5-fluoro-6-hydroxypyridin-2-yl)-1,3,4-thiadiazol-2-yl)methyl)-4,6-diazaspiro[2.4]heptane-5,7-dione]
66	(R)-4-((5-(2,4-difluoro-3- hydroxyphenyl)-1,3,4-thiadiazol-2- yl)methyl)-6-(1-hydroxypropan-2- yl)-4,6-diazaspiro[2.4]heptane-5,7- dione [Compound I-46]
620	O=C1N(Cc2ncccn2)C(=O)C2(CC2)N1Cc1nnc(-c2ccc(F)c(O)c2F)s1 [Compound I-21, 4-((5-(2,4-difluoro-3-hydroxyphenyl)-1,3,4-thiadiazol-2-yl)methyl)-6-(pyrimidin-2-ylmethyl)-4,6-diazaspiro[2.4]heptane-5,7-dione]
7.38	COc1ccc(CN2C(=O)N(Cc3nnc(-c4ccc(F)c(O)c4Cl)s3)C3(CC3)C2=O)c(F)c1 [Compound I-44, 4-((5-(2-chloro-4-fluoro-3-hydroxyphenyl)-1,3,4-thiadiazol-2-yl)methyl)-6-(2-fluoro-4-methoxybenzyl)-4,6-diazaspiro[2.4]heptane-5,7-dione]
8.45	O=C1N(CC(F)(F)F)C(=O)C2(CC2)N1Cc1nnc(-c2cc(C(F)(F)F)cc(O)c2F)s1 [Compound I-39, 4-((5-(2-fluoro-3-hydroxy-5-(trifluoromethyl)phenyl)-1,3,4-thiadiazol-2-yl)methyl)-6-(2,2,2-trifluoroethyl)-4,6-diazaspiro[2.4]heptane-5,7-dione]
1390	O=C1N(CC(F)(F)F)C(=O)C2(CC2)N1Cc1nnc(-c2ccc(F)c(O)n2)s1 [Compound I-73, 4-((5-(5-fluoro-6-hydroxypyridin-2-yl)-1,3,4-thiadiazol-2-yl)methyl)-6-(2,2,2-trifluoroethyl)-4,6-diazaspiro[2.4]heptane-5,7-dione]
12.5	O=C1N(CC(F)(F)F)C(=O)C2(CC2)N1Cc1nnc(-c2cc(C(F)(F)F)c(F)c(O)c2F)s1 [Compound I-56, 4-((5-(2,4-difluoro-3-hydroxy-5-(trifluoromethyl)phenyl)-1,3,4-thiadiazol-2-yl)methyl)-6-(2,2,2-trifluoroethyl)-4,6-diazaspiro[2.4]heptane-5,7-dione]
6.77	CC#CC(N1C(=O)N(Cc2nnc(-c3ccc(F)c(O)c3F)s2)C2(CC2)C1=O)C(F)(F)F (centres unmarked) [Compound I-94, 4-((5-(2,4-difluoro-3-hydroxyphenyl)-1,3,4-thiadiazol-2-yl)methyl)-6-(1,1,1-trifluoropent-3-yn-2-yl)-4,6-diazaspiro[2.4]heptane-5,7-dione]
245	CCN1C(=O)N(Cc2nnc(-c3cncc(O)c3Cl)s2)C2(CC2)C1=O [Compound I-11, 4-((5-(4-chloro-5-hydroxypyridin-3-yl)-1,3,4-thiadiazol-2-yl)methyl)-6-ethyl-4,6-diazaspiro[2.4]heptane-5,7-dione]
29.1	O=C1N([C@@H](c2ccccc2)C(F)(F)F)C(=O)C2(CC2)N1Cc1nnc(-c2ccc(F)c(O)n2)s1 [Compound I-88, (S)-4-((5-(5-fluoro-6-hydroxypyridin-2-yl)-1,3,4-thiadiazol-2-yl)methyl)-6-(2,2,2-trifluoro-1-phenylethyl)-4,6-diazaspiro[2.4]heptane-5,7-dione]
2960	O=C1N(CC(F)(F)F)C(=O)C2(CC2)N1Cc1nnc(-c2cc(C(F)(F)F)c(F)c(O)n2)s1 [Compound I-60, 4-((5-(5-fluoro-6-hydroxy-4-(trifluoromethyl)pyridin-2-yl)-1,3,4-thiadiazol-2-yl)methyl)-6-(2,2,2-trifluoroethyl)-4,6-diazaspiro[2.4]heptane-5,7-dione]
53	C[C@@H](CO)N1C(=O)N(Cc2nnc(-c3ccc(F)c(O)c3F)s2)C2(CC2)C1=O [Compound I-47, (S)-4-((5-(2,4-difluoro-3-hydroxyphenyl)-1,3,4-thiadiazol-2-yl)methyl)-6-(1-hydroxypropan-2-yl)-4,6-diazaspiro[2.4]heptane-5,7-dione]
18.6	O=C1N(CCC(F)(F)F)C(=O)C2(CC2)N1Cc1nnc(-c2ccc(F)c(O)c2F)s1 [Compound I-29, 4-((5-(2,4-difluoro-3-hydroxyphenyl)-1,3,4-thiadiazol-2-yl)methyl)-6-(3,3,3-trifluoropropyl)-4,6-diazaspiro[2.4]heptane-5,7-dione]
293	O=C1N(CC(F)(F)F)C(=O)C2(CC2)N1Cc1nnc(-c2nc(C(F)(F)F)c(F)c(O)c2F)s1 [Compound I-58, 4-((5-(3,5-difluoro-4-hydroxy-6-(trifluoromethyl)pyridin-2-yl)-1,3,4-thiadiazol-2-yl)methyl)-6-(2,2,2-trifluoroethyl)-4,6-diazaspiro[2.4]heptane-5,7-dione]
39.4	N#Cc1ccccc1CN1C(=O)N(Cc2nnc(-c3ccc(F)c(O)c3Cl)s2)C2(CC2)C1=O [Compound I-38, 2-((4-((5-(2-chloro-4-fluoro-3-hydroxyphenyl)-1,3,4-thiadiazol-2-yl)methyl)-5,7-dioxo-4,6-diazaspiro[2.4]heptan-6-yl)methyl)benzonitrile]
